The source of these data is BindingDB's records for doi:10.1021/jm000497n (Welfide, 2001).

The assay has as its target Chymotrypsin A (Bos taurus). Kind of assay: In vitro inhibitory activity was determined against bovine pancreas chymotrypsin.
`Cc1cccc(-c2ncc(N)c(=O)n2CC(=O)NC(Cc2ccccc2)C(=O)C(F)(F)C(=O)NCCC(=O)O)c1` (centres undefined) [3-{4-[2-(5-Amino-6-oxo-2-m-tolyl-6H-pyrimidin-1-yl)-acetylamino]-2,2-difluoro-3-oxo-5-phenyl-pentanoylamino}-propionic acid] came in with a Ki of 1430 nM.

Turning to `Cc1cccc(-c2ncc(N)c(=O)n2CC(=O)NC(Cc2ccccc2)C(=O)C(F)(F)C(=O)NCc2ccccc2)c1` (centres undefined) [4-[2-(5-Amino-6-oxo-2-m-tolyl-6H-pyrimidin-1-yl)-acetylamino]-2,2-difluoro-3-oxo-5-phenyl-pentanoic acid benzylamide], the Ki is 1920 nM.

As to `Cc1cccc(-c2ncc(N)c(=O)n2CC(=O)NC(Cc2ccccc2)C(=O)C(F)(F)C(=O)NCC(N)=O)c1` (centres undefined) [4-[2-(5-Amino-6-oxo-2-m-tolyl-6H-pyrimidin-1-yl)-acetylamino]-2,2-difluoro-3-oxo-5-phenyl-pentanoic acid carbamoylmethyl-amide], the affinity corresponds to a Ki of 1440 nM.

Turning to `Nc1cnc(-c2ccc(F)cc2)n(CC(=O)NC(Cc2ccccc2)C(=O)C(F)(F)C(=O)NCc2ccccc2)c1=O` (centres undefined) [4-{2-[5-Amino-2-(4-fluoro-phenyl)-6-oxo-6H-pyrimidin-1-yl]-acetylamino}-2,2-difluoro-3-oxo-5-phenyl-pentanoic acid benzylamide], the affinity corresponds to a Ki of 3280 nM.
